From PMC9327782, “Benzoxazole derivatives as new VEGFR-2 inhibitors and apoptosis inducers: design, synthesis, in silico studies, and antiproliferative evaluation” (Journal of Enzyme Inhibition and Medicinal Chemistry, 2022) come the findings set out here.

The target of assay [1] is T1, VEGFR-2 (Homo sapiens, UniProt P35968).
T1 construct: purchased
The assay is described as follows: In vitro VEGFR-2 kinase assay (ELISA kit). It counts as biochemical. As to conditions: for IC50: ELISA kit; for HillSlope best-fit value, VEGFR-2 / LogIC50 best-fit value, VEGFR-2: supplement raw data, curve fit. On the procedure:
The assay was applied by ELISA kits in accordance with the comprehensive description in[18]^,[33] as described in Supplementary data. […]
2. In vitro VEGFR-2 kinase assay
All the synthesized compounds were tested for its inhibitory activity against VEGFR-2. Human VEGFR-2 ELISA kit (Enzyme-Linked Immunosorbent Assay) was utilized in this test. At first, specific antibody for VEGFR-2 was seeded on a 96-well plate and 100 μL of the standard solution or the tested compound was added, all were incubated at room temperature for 2.5 h. Then washed, 100 μL of the prepared biotin antibody was added, then incubated at room temperature for additional 1 h. and washed. Then, 100 μL of streptavidin solution was added and incubated for 45 min. at room temperature. Washed again, 100 μL of TMB Substrate reagent was added and incubated for 30 min. at room temperature. 50 μL of the stop solution was added, then read at 450 […]
nm immediately. […]
(An ELISA detects its analyte on a solid surface through an enzyme-linked reagent.)

Assay [2] deals with HepG2 cell line. The assay is described as follows: In vitro anti-proliferative MTT assay, HepG2. It counts as cell-based, human. An excerpt:
(§1) The cytotoxicity results were obtained as median growth inhibitory concentration (IC50).
(§2) MTT assay protocol. This method was applied in accordance with the comprehensive description in Supplementary data. […]
(§3) 5 Raw data of cytotoxity and VEGFR -2 assay […]
(§4) Experimental of biological testing
(§5) 1. In vitro anti-proliferative activity
(§6) MTT assay protocol was applied to assess the anti-proliferative activity of the synthesized compounds. Two human cancer cell lines (MCF-7 and HepG-2) and one normal cell line (WI-38) were used in this test. At first, the cell lines were cultured in RPMI -1640 medium with 10% fetal bovine serum. Antibiotics (100 units/ml penicillin and100 µg/ml streptomycin ) were added at 37 °C in a 5% CO2 incubator. The cell lines were seeded in a 96-well plate at a density of 1.0 x 10^4 cells / well at 37 °C for 24 h under 5% CO2. After incubation, the cells were treated with different […]
(§7) concentration of the synthesized compounds and incubated for 24 h. After 24 h of drug treatment, 20 µl of MTT solution at 5mg/ml was added and incubated for 4 h. Dimethyl sulfoxide (DMSO) in volume of 100 µl was added into each well to dissolve the purple formazan formed. The colorimetric assay was measured and recorded at absorbance of 570 nm using a plate reader (EXL 800, USA). The relative cell viability in percentage was calculated as (A570 of treated samples/A570 of untreated sample) X 100. […]

The subject of assay [3] is MCF-7 cell line. Kind of assay: In vitro anti-proliferative MTT assay, MCF-7. It is filed as cell-based, human.
From the text: as §1, §2, §3, §4, §5, §6, §7
In general terms: Tetrazolium assays rely on reduction of a dye to a coloured formazan, in cell work by metabolically active cells.

The subject of assay [4] is WI-38 cell line. Kind of assay: In vitro cytotoxicity against normal cell line (MTT). It is filed as cell-based, human. More on the design: LogIC50 best-fit value, WI-38: unit not given here. As to conditions: for IC50: WI-38, normal human lung cell line, MTT; for HillSlope best-fit value, WI-38 / LogIC50 best-fit value, WI-38: supplement raw data, dose-response curve fit.
From the text: […]. Such values were very high in comparison to the corresponding values on cancer cell lines, which reflect high safety profile of the tested candidates towards normal cell lines.
as §2, §3, §4, §5, §6, §7

Where [5] appears, read: Homo sapiens, HepG2, 24 h, MTT, 24 h treatment, mean of three experiments, read-out: In vitro IC50 HepG2.
[6] abbreviates: Homo sapiens, HepG2, supplement raw data, dose-response curve fit, read-out: LogIC50 best-fit value, HepG2 (converted).
[7] abbreviates: Homo sapiens, MCF7, 24 h, MTT, 24 h treatment, mean of three experiments, read-out: In vitro IC50 MCF-7.
The mark [8] stands for this setting: Homo sapiens, MCF7, supplement raw data, dose-response curve fit, read-out: LogIC50 best-fit value, MCF-7 (converted).
[9] abbreviates: Homo sapiens, HepG2, supplement raw data, dose-response curve fit, read-out: IC50 best-fit value, HepG2.

SMILES strings stand for the structures. Read-outs that look alike come from different tables or passages of the source.

T1 sequence (P35968 20-1356): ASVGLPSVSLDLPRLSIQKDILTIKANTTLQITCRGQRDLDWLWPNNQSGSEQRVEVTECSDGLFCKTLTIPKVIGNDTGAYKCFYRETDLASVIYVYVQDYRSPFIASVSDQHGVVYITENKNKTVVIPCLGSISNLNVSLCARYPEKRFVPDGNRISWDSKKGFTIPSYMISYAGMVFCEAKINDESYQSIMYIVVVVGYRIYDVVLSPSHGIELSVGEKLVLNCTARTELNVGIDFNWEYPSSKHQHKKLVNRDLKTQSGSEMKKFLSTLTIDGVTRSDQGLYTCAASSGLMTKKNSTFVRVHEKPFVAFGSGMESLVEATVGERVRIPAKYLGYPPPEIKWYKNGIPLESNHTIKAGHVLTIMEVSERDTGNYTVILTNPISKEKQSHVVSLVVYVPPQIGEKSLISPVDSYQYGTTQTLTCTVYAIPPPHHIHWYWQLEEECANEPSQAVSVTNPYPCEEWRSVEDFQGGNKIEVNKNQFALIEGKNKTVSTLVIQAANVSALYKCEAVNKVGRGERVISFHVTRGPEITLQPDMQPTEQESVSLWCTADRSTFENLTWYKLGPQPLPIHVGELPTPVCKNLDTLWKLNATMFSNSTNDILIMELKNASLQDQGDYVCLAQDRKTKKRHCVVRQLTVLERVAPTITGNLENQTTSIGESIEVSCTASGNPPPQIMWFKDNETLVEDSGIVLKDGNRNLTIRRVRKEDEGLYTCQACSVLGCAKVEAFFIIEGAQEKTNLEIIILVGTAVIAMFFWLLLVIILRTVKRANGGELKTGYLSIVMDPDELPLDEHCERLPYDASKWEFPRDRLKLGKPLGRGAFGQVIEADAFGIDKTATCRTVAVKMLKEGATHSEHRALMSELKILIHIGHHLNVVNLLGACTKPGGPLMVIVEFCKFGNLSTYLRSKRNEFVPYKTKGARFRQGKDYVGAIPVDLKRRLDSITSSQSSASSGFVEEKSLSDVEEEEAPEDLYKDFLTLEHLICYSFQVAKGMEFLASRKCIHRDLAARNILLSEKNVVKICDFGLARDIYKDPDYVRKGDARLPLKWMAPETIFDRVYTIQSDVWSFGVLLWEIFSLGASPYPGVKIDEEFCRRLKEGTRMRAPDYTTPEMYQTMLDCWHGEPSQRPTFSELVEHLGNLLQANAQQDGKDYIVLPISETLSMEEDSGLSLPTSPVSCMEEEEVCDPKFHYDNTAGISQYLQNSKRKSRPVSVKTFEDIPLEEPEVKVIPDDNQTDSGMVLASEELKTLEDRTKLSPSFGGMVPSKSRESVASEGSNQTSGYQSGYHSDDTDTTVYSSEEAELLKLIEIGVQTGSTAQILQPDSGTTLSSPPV

In the case of `Cc1ccc2oc(SCC(=O)Nc3ccc(C(=O)NC(C)(C)C)cc3)nc2c1` [Compound 12f, N-(Tert-butyl)-4–(2-((5-methylbenzo[d]oxazol-2-yl)thio)acetamido)benzamide], the IC50 in assay [1] is 0.265 µM; in assay [2] (setting [5]), 37 ± 3.4 µM; in assay [2] (setting [6]) it was 37 µM; in assay [3] (setting [7]), 22.5 ± 1.8 µM; in assay [3] (setting [8]) it was 22.5 µM. Further, in assay [1], the “HillSlope best-fit value, VEGFR-2” value is on record as -0.3283. In assay [1], the “LogIC50 best-fit value, VEGFR-2” value was 2.423 Log (nM).
In the case of `Cc1ccc2oc(SCC(=O)Nc3ccc(C(=O)NC4CCCC4)cc3)nc2c1` [Compound 12c, N-Cyclopentyl-4–(2-((5-methylbenzo[d]oxazol-2-yl)thio)acetamido)benzamide], the IC50 in assay [2] (setting [5]) was 74.3 ± 6.8 µM; in assay [2] (setting [6]) it was 74.3 µM; in assay [3] (setting [7]), 36.7 ± 3.3 µM; in assay [3] (setting [8]), 36.7 µM.
Turning to `COc1cccc(NC(=O)c2ccc(NC(=O)CSc3nc4cc(C)ccc4o3)cc2)c1` [Compound 12i, N-(3-Methoxyphenyl)-4–(2-((5-methylbenzo[d]oxazol-2-yl)thio)acetamido)benzamide], the IC50 in assay [4] is 76.8 µM; in assay [1], 0.155 µM; in assay [2] (setting [5]) it was 27.3 ± 2.2 µM; in assay [2] (setting [6]), 27.3 µM; in assay [3] (setting [7]), 28 ± 2.1 µM; in assay [3] (setting [8]), 28 µM. In addition, the “HillSlope best-fit value, WI-38” value in assay [4] is -0.4944. Moreover, in assay [4], the “LogIC50 best-fit value, WI-38” value is given as 1.885. Further, the “HillSlope best-fit value, VEGFR-2” value in assay [1] is given as -0.3818. In assay [1], the “LogIC50 best-fit value, VEGFR-2” value was 2.190 Log (nM).
With `O=C(CSc1nc2ccccc2o1)Nc1ccc(C(=O)NC2CCCC2)cc1` [Compound 12a, 4–(2-(Benzo[d]oxazol-2-ylthio)acetamido)-N-cyclopentylbenzamide], the IC50 in assay [2] (setting [5]) is 38.8 ± 3.2 µM; in assay [2] (setting [6]), 38.8 µM; in assay [3] (setting [7]) it was 33.3 ± 2.9 µM; in assay [3] (setting [8]), 33.3 µM.
The like results for `O=C(CSc1nc2cc(Cl)ccc2o1)Nc1ccc(C(=O)NC2CCCC2)cc1` [Compound 12b, 4–(2-((5-Chlorobenzo[d]oxazol-2-yl)thio)acetamido)-N-cyclopentylbenzamide] were, in that order, 64.2 ± 6.1 µM, 64.1 µM, 77 ± 7.3 µM and 77.1 µM.
In the same order, the values of `COc1cccc(NC(=O)c2ccc(NC(=O)CSc3nc4cc(Cl)ccc4o3)cc2)c1` [Compound 12h, 4–(2-((5-Chlorobenzo[d]oxazol-2-yl)thio)acetamido)-N-(3-methoxyphenyl)benzamide] are 102 ± 8.5 µM, 102 µM, 85.6 ± 8.2 µM and 85.7 µM.
In the case of `O=C(CSc1nc2cc(Cl)ccc2o1)Nc1ccc(C(=O)Nc2cccc(Cl)c2)cc1` [Compound 12k, 4–(2-((5-Chlorobenzo[d]oxazol-2-yl)thio)acetamido)-N-(3-chlorophenyl)benzamide], the IC50 in assay [2] (setting [5]) was 28.4 ± 2.5 µM; in assay [2] (setting [6]), 28.4 µM; in assay [3] (setting [7]), 86.6 ± 7.8 µM; in assay [3] (setting [8]), 86.7 µM.
Take `CC(C)(C)NC(=O)c1ccc(NC(=O)CSc2nc3cc(Cl)ccc3o2)cc1` [Compound 12e, N-(Tert-butyl)-4–(2-((5-chlorobenzo[d]oxazol-2-yl)thio)acetamido)benzamide]: the IC50 in assay [2] (setting [5]) is 71.6 ± 6.7 µM; in assay [2] (setting [6]) it was 71.6 µM; in assay [3] (setting [7]) it was 62.3 ± 5.8 µM; in assay [3] (setting [8]), 62.2 µM.
`O=C(CSc1nc2ccccc2o1)Nc1ccc(C(=O)NNC(=O)c2cccc(Cl)c2)cc1` [Compound 13a, 2-(Benzo[d]oxazol-2-ylthio)-N-(4–(2-(3-chlorobenzoyl)hydrazine-1-carbonyl)phenyl)-acetamide]: in assay [1], the IC50 was 0.268 µM; the “HillSlope best-fit value, VEGFR-2” value was -0.5089; the “LogIC50 best-fit value, VEGFR-2” value is 2.428 Log (nM). Besides, in assay [2] (setting [6]), the IC50 was 25.5 µM. For the same compound, the IC50 in assay [3] (setting [8]) is 32.4 µM.
Consider `CC(C)(C)NC(=O)c1ccc(NC(=O)CSc2nc3ccccc3o2)cc1` [Compound 12d, 4–(2-(Benzo[d]oxazol-2-ylthio)acetamido)-N-(tert-butyl)benzamide], for which the IC50 in assay [4] is 99.4 µM; in assay [1], 0.195 µM; in assay [2] (setting [5]), 23.6 ± 2.1 µM; in assay [2] (setting [6]), 23.6 µM; in assay [3] (setting [7]) it was 44.1 ± 3.8 µM; in assay [3] (setting [8]), 44.1 µM. In addition, in assay [4], the “HillSlope best-fit value, WI-38” value is given as -0.3751. Moreover, the “LogIC50 best-fit value, WI-38” value in assay [4] is listed as 1.997. In assay [1], the “HillSlope best-fit value, VEGFR-2” value is reported as -0.4166. The “LogIC50 best-fit value, VEGFR-2” value in assay [1] is given as 2.289 Log (nM).
For the compound `COc1cccc(NC(=O)c2ccc(NC(=O)CSc3nc4ccccc4o3)cc2)c1` [Compound 12g, 4–(2-(Benzo[d]oxazol-2-ylthio)acetamido)-N-(3-methoxyphenyl)benzamide], the IC50 in assay [2] (setting [5]) is 36.7 ± 2.9 µM; in assay [2] (setting [6]), 36.6 µM; in assay [3] (setting [7]), 53 ± 5.1 µM; in assay [3] (setting [8]), 53 µM.
Turning to `CNC(=O)c1cc(Oc2ccc(NC(=O)Nc3ccc(Cl)c(C(F)(F)F)c3)cc2)ccn1` [Sorafenib, sorafenib, reference compound], the IC50 in assay [4] is 22.1 µM; in assay [2] (setting [5]), 5.57 ± 0.4 µM; in assay [2] (setting [9]), 5.57 µM; in assay [2] (setting [6]), 5.57 µM; in assay [3] (setting [7]), 6.46 ± 0.3 µM; in assay [3] (Homo sapiens, MCF7, supplement raw data, dose-response curve fit, read-out: IC50 best-fit value, MCF-7) it was 6.46 µM. For the same compound, the IC50 in assay [3] (setting [8]) is 6.46 µM. Moreover, in assay [4], the “HillSlope best-fit value, WI-38” value is on record as -0.4247. The “LogIC50 best-fit value, WI-38” value in assay [4] was determined as 1.344.
Take `Cc1ccc2oc(SCC(=O)Nc3ccc(C(=O)NNC(=O)c4cccc(Cl)c4)cc3)nc2c1` [Compound 13c, N-(4–(2-(3-Chlorobenzoyl)hydrazine-1-carbonyl)phenyl)-2-((5-methylbenzo[d]oxazol-2-yl)thio)acetamide]: the IC50 in assay [2] (setting [5]) is 24.2 ± 2.1 µM; in assay [2] (setting [9]), 24.4 µM; in assay [2] (setting [6]), 24.4 µM; in assay [3] (setting [7]), 53.1 ± 3.7 µM; in assay [3] (setting [8]), 53.1 µM.
On to `O=C(CSc1nc2ccccc2o1)Nc1ccc(C(=O)Nc2cccc(Cl)c2)cc1` [Compound 12j, 4–(2-(Benzo[d]oxazol-2-ylthio)acetamido)-N-(3-chlorophenyl)benzamide], for which the IC50 in assay [2] (setting [5]) was 33.6 µM; in assay [2] (setting [6]) it was 50.9 µM; in assay [2] (MTT, 24 h treatment, mean of three experiments, read-out: In vitro IC50 HepG2) it was 50.9 ± 4.6 µM; in assay [3] (setting [7]), 50.9 µM; in assay [3] (setting [8]), 33.6 µM; in assay [3] (MTT, 24 h treatment, mean of three experiments, read-out: In vitro IC50 MCF-7), 33.6 ± 2.8 µM.
On to `O=C(CSc1nc2cc(Cl)ccc2o1)Nc1ccc(C(=O)NNC(=O)c2cccc(Cl)c2)cc1` [Compound 13b, 2-((5-Chlorobenzo[d]oxazol-2-yl)thio)-N-(4–(2-(3-chlorobenzoyl)hydrazine-1-carbonyl)-phenyl)acetamide], for which the IC50 was 42.1 ± 3.8 µM in assay [2] (setting [5]), 42.1 µM in assay [2] (setting [6]), 26.3 ± 2.2 µM in assay [3] (setting [7]) and 26.3 µM in assay [3] (setting [8]).
